Activity calls are given as the source filed them. The rule behind the calls is not given here. Residues, ends and D or L forms follow the SMILES beside them.

Assay [1] addresses HLA-DRB2 protein (Homo sapiens) (UniProt Q30155). The assay is described as follows: Inhibition of AMCA-labeled MBP (83 to 99) binding to HLA-DR2b […] in human HTC-Lan B cells at 10 fold excess after 48 hrs by fluorescence spectrophotometric method. The assay is classed as cell-based.
Assay [2] shares this target. The assay is described as follows: Inhibition of AMCA-labeled MBP (83 to 99) binding to HLA-DR2b […] in human HTC-Lan B cells at 20 fold excess after 48 hrs by fluorescence spectrophotometric method. The format is cell-based.
For assay [3], the system named is Mus musculus. The assay is described as follows: Antiinflammatory activity in C57BL/6 mouse EAE model subcutaneously immunized using 1:1 mixture of linear and cyclic MOG35 to 55 peptide in presence of complete Freunds adjuvant (CFA) followed by intraperitoneal pertussis toxin assessed as protection against axonal injury by measuring normal cell population in spinal cord measured 46 days post disease induction (reference value: 32%). The assay is classed as functional.

The subject of assay [4] is Mus musculus. Nature of the assay: Antiinflammatory activity in C57BL/6 mouse EAE model subcutaneously immunized using 1:1 mixture of linear and cyclic MOG35 to 55 peptide in presence of complete Freunds adjuvant (CFA) followed by intraperitoneal pertussis toxin assessed as reduction demyelinating area measured 46 days post disease induction by Bielschowsky silver impregnation staining method combined with haematoxylin staining-based assay. The assay is classed as functional.

Assay [5] has as its system Mus musculus. Nature of the assay: Antiinflammatory activity in C57BL/6 mouse EAE model subcutaneously immunized using 1:1 mixture of linear and cyclic MOG35 to 55 peptide in presence of complete Freunds adjuvant (CFA) followed by intraperitoneal pertussis toxin assessed as protection against axonal loss by measuring normal cell population in spinal cord measured 46 days post disease induction (reference value: 27.3%). The assay is classed as functional.

Assay [6] has as its system Mus musculus. The assay is described as follows: Antiinflammatory activity in C57BL/6 mouse EAE model subcutaneously immunized using 1:1 mixture of linear and cyclic MOG35 to 55 peptide in presence of complete Freunds adjuvant (CFA) followed by intraperitoneal pertussis toxin assessed as reduction in size of inflammatory foci measured 16 days post disease induction by Luxol fast blue (LFB) staining counterstained with Nuclear fast Red staining-based assay. The format is functional.

The subject of assay [7] is Mus musculus. The assay is described as follows: Immunomodulatory activity in C57BL/6 mouse subcutaneously immunized using 1:1 mixture of linear and cyclic MOG35 to 55 peptide in presence of complete Freunds adjuvant (CFA) followed by intraperitoneal pertussis toxin assessed as reduction in overall disease burden measured 16 days post disease induction. The assay is classed as functional.

Assay [8] relates to Mus musculus. The assay is described as follows: Antiinflammatory activity in C57BL/6 mouse EAE model subcutaneously immunized using 1:1 mixture of linear and cyclic MOG35 to 55 peptide in presence of complete Freunds adjuvant (CFA) followed by intraperitoneal pertussis toxin assessed as axonal loss in spinal cord measured 16 days post disease induction (reference value: 13 to 30.4%). The format is functional.

For assay [9], the system named is Mus musculus. The assay is described as follows: Antiinflammatory activity in C57BL/6 mouse EAE model subcutaneously immunized using 1:1 mixture of linear and cyclic MOG35 to 55 peptide in presence of complete Freunds adjuvant (CFA) followed by intraperitoneal pertussis toxin assessed as axonal injury in spinal cord measured 46 days post disease induction (reference value: 0.7 to 36%). The format is functional.

Assay [10] relates to Mus musculus. The assay is described as follows: Antiinflammatory activity in C57BL/6 mouse EAE model subcutaneously immunized using 1:1 mixture of linear and cyclic MOG35 to 55 peptide in presence of complete Freunds adjuvant (CFA) followed by intraperitoneal pertussis toxin assessed as reduction in size of inflammatory foci measured 16 days post disease induction by Bielschowsky silver impregnation staining method combined with haematoxylin staining-based assay. The format is functional.

Assay [11] concerns the target HLA-DRB2 protein (Homo sapiens) (UniProt Q30155). Nature of the assay: Inhibition of AMCA-labeled MBP (83 to 99) binding to HLA-DR2b […] in human HTC-Lan B cells at 50 fold excess after 48 hrs by fluorescence spectrophotometric method. The format is cell-based.
Assay [12] has as its system Mus musculus. The assay is described as follows: Antiinflammatory activity in C57BL/6 mouse EAE model subcutaneously immunized using 1:1 mixture of linear and cyclic MOG35 to 55 peptide in presence of complete Freunds adjuvant (CFA) followed by intraperitoneal pertussis toxin assessed as reduction demyelinating area measured 16 days post disease induction by Bielschowsky silver impregnation staining method combined with haematoxylin staining-based assay. The assay is classed as functional.

Assay [13] has as its system Mus musculus. The assay is described as follows: Antiinflammatory activity in C57BL/6 mouse EAE model subcutaneously immunized using 1:1 mixture of linear and cyclic MOG35 to 55 peptide in presence of complete Freunds adjuvant (CFA) followed by intraperitoneal pertussis toxin assessed as reduction demyelinating area measured 46 days post disease induction by Luxol fast blue (LFB) staining counterstained with Nuclear fast Red staining-based assay. The assay is classed as functional.

The test system of assay [14] is Mus musculus. Nature of the assay: Immunomodulatory activity in C57BL/6 mouse subcutaneously immunized using 1:1 mixture of linear and cyclic MOG35 to 55 peptide in presence of complete Freunds adjuvant (CFA) followed by intraperitoneal pertussis toxin assessed as reduction in overall disease burden measured 46 days post disease induction. The assay is classed as functional.

The subject of assay [15] is Mus musculus. The assay is described as follows: Antiinflammatory activity in C57BL/6 mouse EAE model subcutaneously immunized using 1:1 mixture of linear and cyclic MOG35 to 55 peptide in presence of complete Freunds adjuvant (CFA) followed by intraperitoneal pertussis toxin assessed as reduction demyelinating area measured 16 days post disease induction by Luxol fast blue (LFB) staining counterstained with Nuclear fast Red staining-based assay. The assay is classed as functional.

The subject of assay [16] is Mus musculus. The assay is described as follows: Antiinflammatory activity in C57BL/6 mouse EAE model subcutaneously immunized using 1:1 mixture of linear and cyclic MOG35 to 55 peptide in presence of complete Freunds adjuvant (CFA) followed by intraperitoneal pertussis toxin assessed as axonal loss in spinal cord measured 46 days post disease induction (reference value: 4.7 to 26%). The format is functional.

Assay [17] deals with Mus musculus. The assay is described as follows: Antiinflammatory activity in C57BL/6 mouse EAE model subcutaneously immunized using 1:1 mixture of linear and cyclic MOG35 to 55 peptide in presence of complete Freunds adjuvant (CFA) followed by intraperitoneal pertussis toxin assessed as axonal injury in spinal cord measured 16 days post disease induction (reference value: 15.2 to 42.4%). The assay is classed as functional.

Assay [18] has as its system Mus musculus. Nature of the assay: Antiinflammatory activity in C57BL/6 mouse EAE model subcutaneously immunized using 1:1 mixture of linear and cyclic MOG35 to 55 peptide in presence of complete Freunds adjuvant (CFA) followed by intraperitoneal pertussis toxin assessed as reduction in size of inflammatory foci measured 46 days post disease induction by Bielschowsky silver impregnation staining method combined with haematoxylin staining-based assay. The assay is classed as functional.

Assay [19] deals with Mus musculus. Nature of the assay: Antiinflammatory activity in C57BL/6 mouse EAE model subcutaneously immunized using 1:1 mixture of linear and cyclic MOG35 to 55 peptide in presence of complete Freunds adjuvant (CFA) followed by intraperitoneal pertussis toxin assessed as protection against axonal loss by measuring normal cell population in spinal cord measured 16 days post disease induction (reference value: 4.3%). The format is functional.

Assay [20] relates to Mus musculus. Nature of the assay: Antiinflammatory activity in C57BL/6 mouse EAE model subcutaneously immunized using 1:1 mixture of linear and cyclic MOG35 to 55 peptide in presence of complete Freunds adjuvant (CFA) followed by intraperitoneal pertussis toxin assessed as protection against axonal injury by measuring normal cell population in spinal cord measured 16 days post disease induction (reference value: 4.3%). The assay is classed as functional.

The test system of assay [21] is Mus musculus. The assay is described as follows: Antiinflammatory activity in C57BL/6 mouse EAE model subcutaneously immunized using 1:1 mixture of linear and cyclic MOG35 to 55 peptide in presence of complete Freunds adjuvant (CFA) followed by intraperitoneal pertussis toxin assessed as reduction in size of inflammatory foci measured 46 days post disease induction by Luxol fast blue (LFB) staining counterstained with Nuclear fast Red staining-based assay. The assay is classed as functional.

Sequence of HLA-DRB2 protein (Homo sapiens) (Q30155 as listed by the source): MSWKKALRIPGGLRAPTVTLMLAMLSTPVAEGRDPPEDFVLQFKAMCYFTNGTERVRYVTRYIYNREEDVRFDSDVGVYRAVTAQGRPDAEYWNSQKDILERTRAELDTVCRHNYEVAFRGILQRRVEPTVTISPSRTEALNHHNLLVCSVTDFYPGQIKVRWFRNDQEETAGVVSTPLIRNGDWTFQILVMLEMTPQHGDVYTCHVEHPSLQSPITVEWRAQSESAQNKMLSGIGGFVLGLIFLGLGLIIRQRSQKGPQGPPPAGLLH

Consider `CC[C@H](C)[C@H](NC(=O)[C@H](CC(N)=O)NC(=O)[C@H](CCCCN)NC(=O)[C@H](Cc1ccccc1)NC(=O)[C@H](Cc1ccccc1)NC(=O)[C@H](Cc1cnc[nH]1)NC(=O)[C@@H](NC(=O)[C@@H](NC(=O)[C@@H]1CCCN1C(=O)[C@H](CC(N)=O)NC(=O)[C@@H](N)CCC(=O)O)C(C)C)C(C)C)C(=O)N[C@H](C(=O)N[C@H](C(=O)N1CCC[C@H]1C(=O)N[C@@H](CCCNC(=N)N)C(=O)N[C@H](C(=O)N1CCC[C@H]1C(=O)O)[C@@H](C)O)[C@@H](C)O)C(C)C`, for which the inhibition result in [1] was “Active”.

Take `CSCC[C@H](N)C(=O)N[C@@H](CCC(=O)O)C(=O)N[C@H](C(=O)NCC(=O)N[C@@H](Cc1c[nH]c2ccccc12)C(=O)N[C@@H](Cc1ccc(O)cc1)C(=O)N[C@@H](CCCNC(=N)N)C(=O)N[C@@H](CO)C(=O)N1CCC[C@H]1C(=O)N[C@@H](Cc1ccccc1)C(=O)N[C@@H](CO)C(=O)N[C@@H](CCCNC(=N)N)C(=O)N[C@H](C(=O)N[C@H](C(=O)N[C@@H](Cc1cnc[nH]1)C(=O)N[C@@H](CC(C)C)C(=O)N[C@@H](Cc1ccc(O)cc1)C(=O)N[C@@H](CCCNC(=N)N)C(=O)N[C@@H](CC(N)=O)C(=O)NCC(=O)N[C@@H](CCCCN)C(=O)O)C(C)C)C(C)C)C(C)C` (H-MEVGWYRSPFSRVVHLYRNGK-OH): in [2], the inhibition entry was “Active”.

For `CSCC[C@@H]1NC(=O)[C@H](CCCCN)NC(=O)CNC(=O)[C@H](CC(N)=O)NC(=O)[C@H](CCCNC(=N)N)NC(=O)[C@H](Cc2ccc(O)cc2)NC(=O)[C@H](CC(C)C)NC(=O)[C@H](Cc2cnc[nH]2)NC(=O)[C@H](C(C)C)NC(=O)[C@H](C(C)C)NC(=O)[C@H](CCCNC(=N)N)NC(=O)[C@H](CO)NC(=O)[C@H](Cc2ccccc2)NC(=O)[C@@H]2CCCN2C(=O)[C@H](CO)NC(=O)[C@H](CCCNC(=N)N)NC(=O)[C@H](Cc2ccc(O)cc2)NC(=O)[C@H](Cc2c[nH]c3ccccc23)NC(=O)CNC(=O)[C@H](C(C)C)NC(=O)[C@H](CCC(=O)O)NC1=O` (cyclo(EVGWYRSPFSRVVHLYRNGKM)), the Activity is on record as 48.3% in assay [3]; 45.6% in assay [5]; 1.7 - 27.6% in [8]; 0.7 - 26.5% in [9]; 2 - 27.2% in assay [16]; 0.9 - 40.5% in assay [17]. Further, the values for the Activity in [19] and in assay [20] were 36.2% and 37.1%, respectively. The outcome in assay [4], in [6], in assay [7], in [10], in assay [12] and in [13] was Active. Besides, the outcome in assay [14], in [15], in assay [18] and in assay [21] was Active. The inhibition result in assay [11] was “Active”.

These data come from ChEMBL document CHEMBL4043095, “Cyclic MOG35-55 ameliorates clinical and neuropathological features of experimental autoimmune encephalomyelitis” (2017).
